According to patent publication US10208033B2, “β-carboline, dihydro-β-carboline and tetrahydro-β-carboline alkaloid derivatives and preparation methods same and use in aspects of preventing and treating plant viruses, fungicides and insecticides” (NANKAI UNIVERSITY, priority 2013, dated 2019):
Counter-ions that a name gives are not always drawn.

What was measured:
[1] = tested on: Cercospora arachidicola; experiment: Fungicidal (bactericidal) activity in vitro, PDA colony diameter; format: cell-based; conditions: 50 mg/kg
[2] = tested on: Bipolaria maydis; experiment: organism not typed; format: cell-based; conditions: for Bactericidal activity (%) Bipolaria maydis: 50 mg/kg
[3] = tested on: cucumber fusarium wilt; experiment: Fungicidal (bactericidal) activity in vitro, PDA colony diameter; format: cell-based; conditions: 50 mg/kg
[4] = tested on: Fusarium graminearumt; experiment: microbe, parasite or virus in culture; format: cell-based; conditions: for Bactericidal activity (%) Fusarium graminearumt: 50 mg/kg
[5] = tested on: mosquito larvae; experiment: whole plant or invertebrate; conditions: for activity against culex pipiens larvae (in words): at 5 mg/kg
Outline: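 Early fourth-instar Culex pipiens pallens larvae from an indoor colony, 10 per beaker, exposed to test compound at 5 ppm in water, diluted from a 1000 ppm acetone mother solution. Blank: water containing 0.5 mL test solvent.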

[6] = tested on: Sclerotinia scleotiorum; experiment: Fungicidal (bactericidal) activity in vitro, PDA colony diameter; format: cell-based; conditions: 50 mg/kg
[7] = tested on: tobacco mosaic virus (TMV); experiment: Anti-TMV in vitro effect (half-leaf soaking); format: cell-based, tobacco mosaic virus (host Nicotiana tabacum L.cv.Xanthi NN)
[8] = tested on: Phytophthora capsici; experiment: Fungicidal (bactericidal) activity in vitro, PDA colony diameter; format: cell-based; conditions: 50 mg/kg
[9] = tested on: armyworms, cotton bollworms and corn borers; experiment: Insecticidal activity, overall statements on Table 3; format: in vivo; conditions: Table 3, 600 mg/kg
[10] = tested on: tobacco mosaic virus (TMV); experiment: Anti-TMV in vivo inactivation; set-up: species or system tobacco mosaic virus (host Nicotiana tabacum L.cv.Xanthi NN)
[11] = tested on: Rhizoctonia solani; experiment: Fungicidal (bactericidal) activity in vitro, PDA colony diameter; format: cell-based; conditions: 50 mg/kg
[12] = tested on: tobacco mosaic virus (TMV); experiment: Anti-TMV activity, overall statements on Table 1; format: in vivo, tobacco mosaic virus (host Nicotiana tabacum L.cv.Xanthi NN); conditions: 100 μg/mL versus ningnanmycin at 100 μg/mL
[13] = tested on: armyworms; format: in vivo; conditions: concentration 600 mg/kg
[14] = tested on: corn borers; experiment: whole plant or invertebrate; conditions: read-out: Corn borer Mortality (%)
[15] = tested on: Rhizoctonia cereali; experiment: Fungicidal (bactericidal) activity in vitro, PDA colony diameter; format: cell-based; conditions: 50 mg/kg
[16] = tested on: cotton bollworms; experiment: whole plant or invertebrate; conditions: for Cotton bollworm Mortality (%): concentration 600 mg/kg
Method: Experimental method of cotton bollworms: feed and drug mixing method: measure 3 mL of prepared solution and add it to about 27 g of newly prepared feed, thereby obtaining needed concentration through dilution by 10 times.

[17] = tested on: tobacco mosaic virus (TMV); experiment: Anti-TMV in vivo protective effect; set-up: species or system tobacco mosaic virus (host Nicotiana tabacum L.cv.Xanthi NN)
[18] = tested on: Botrytis cinerea; experiment: Fungicidal (bactericidal) activity in vitro, PDA colony diameter; format: cell-based; conditions: 50 mg/kg
[19] = tested on: tobacco mosaic virus (TMV); experiment: Anti-TMV in vivo therapeutic effect; set-up: species or system tobacco mosaic virus (host Nicotiana tabacum L.cv.Xanthi NN)
[20] = tested on: Fusarium fujikuroi; experiment: Fungicidal (bactericidal) activity in vitro, PDA colony diameter; format: cell-based; conditions: 50 mg/kg
[21] = tested on: potato late blight; experiment: microbe, parasite or virus in culture; format: cell-based
[22] = tested on: Alternaria solani; experiment: Fungicidal (bactericidal) activity in vitro, PDA colony diameter; format: cell-based; conditions: 50 mg/kg
[23] = tested on: Macrophoma kawatsukai; experiment: as above; format: cell-based; conditions: 50 mg/kg
[24] = tested on: Colletotrichum orbiculare; experiment: as above; format: cell-based; conditions: 50 mg/kg
[25] = tested on: 14 kinds of fungi; experiment: Bactericidal activity, overall statements on Table 2; format: cell-based; conditions: Table 2, 50 mg/kg
Description: In vitro test method (Alternaria solani is taken for example. Alternatively, other fungi may be used): Inoculate Alternaria solani to PDA culture medium, culture it for 7 days, prepare […] bacteria plates from colony edge by a puncher, inoculate […] and drug-free PDA culture media, culture them for 4 days, measure colony diameter, compare with the control group and calculate the inhibition percentage of the drug.

[26] = tested on: corn borers; conditions: concentration 600 mg/kg
[27] = Culex pipiens, 24 h, read-out: Mosquito larvae Mortality (%)

CCOC(=O)[C@@H]1Cc2c([nH]c3ccccc23)[C@H](C)N1 [Ib-13, (1S, 3S)-1-methyl-2,3,4,9-tetrahydropyridino [3,4-b] indol-3-ethyl formate]
inhibition of growth at 50 mg/kg ([1]; Mycosphaerella arachidis, 96 h): 50%
inhibition at 50 mg/kg ([2]; read-out: Bactericidal activity (%) Bipolaria maydis): 26.3%
inhibition of growth at 50 mg/kg ([3]; Fusarium, 96 h): 28.6%
inhibition of growth at 50 mg/kg ([4]; Fusarium, 96 h, read-out: Bactericidal activity (%) Fusarium graminearumt): 21.4%
mortality at 5 mg/kg [5, 27]: 60%
mortality at 10 mg/kg [5, 27]: 100%
activity against culex pipiens larvae (in words) [5]: still show high activity
inhibition of growth at 50 mg/kg ([6]; Sclerotinia, 96 h): 68%
inhibition at 100 µg/mL ([7]; Tobacco mosaic virus, treatment dose 100 μg/mL, read-out: Relative inhibition rate (%) In vitro activity): 21.8%
inhibition at 500 µg/mL ([7]; Tobacco mosaic virus, treatment dose 500 μg/mL, read-out: Relative inhibition rate (%) In vitro activity): 46.5%
inhibition of growth at 50 mg/kg ([8]; Phytophthora capsici, 96 h): 60.6%
activity against armyworms, cotton bollworms and corn borers (in words) [9]: broad-spectrum activity
inhibition at 100 µg/mL ([10]; Tobacco mosaic virus, treatment dose 100 μg/mL, read-out: Relative inhibition rate (%) In vivo inactivation): 25.7%
inhibition at 500 µg/mL ([10]; Tobacco mosaic virus, treatment dose 500 μg/mL, read-out: Relative inhibition rate (%) In vivo inactivation): 50.4%
inhibition of growth at 50 mg/kg ([11]; Rhizoctonia solani, 96 h): 33.9%
anti-TMV activity compared with ningnanmycin [12]: equivalent to the activity of commercial variety ningnanmycin
Armyworm Mortality (%) [13]: 60%
mortality at 600 mg/kg [14]: 55%
inhibition of growth at 50 mg/kg ([15]; Rhizoctonia, 96 h): 59.4%
mortality at 600 mg/kg ([16]; Helicoverpa armigera, in Gossypium hirsutum, read-out: Cotton bollworm Mortality (%)): 30%
inhibition at 100 µg/mL ([17]; Tobacco mosaic virus, treatment dose 100 μg/mL, read-out: Relative inhibition rate (%) In vivo protection): 18.6%
inhibition at 500 µg/mL ([17]; Tobacco mosaic virus, treatment dose 500 μg/mL, read-out: Relative inhibition rate (%) In vivo protection): 47.9%
inhibition of growth at 50 mg/kg ([18]; Botrytis cinerea, 96 h): 68.2%
inhibition at 100 µg/mL ([19]; Tobacco mosaic virus, treatment dose 100 μg/mL, read-out: Relative inhibition rate (%) In vivo therapy): 17.5%
inhibition at 500 µg/mL ([19]; Tobacco mosaic virus, treatment dose 500 μg/mL, read-out: Relative inhibition rate (%) In vivo therapy): 43.9%
inhibition of growth at 50 mg/kg ([20]; Fusarium fujikuroi, 96 h): 42.9%
inhibition of growth at 50 mg/kg ([21]; Phytophthora infestans, 96 h, read-out: Bactericidal activity (%) potato late blight): 30%
inhibition of growth at 50 mg/kg ([22]; Alternaria solani, 96 h): 55.6%
inhibition at 50 mg/kg [23]: 29.4%
inhibition of growth at 50 mg/kg ([24]; Colletotrichum orbiculare, 96 h): 38.1%

C[C@@H]1N[C@H](C(=O)NN=Cc2ccc(C(C)(C)C)cc2)Cc2c1[nH]c1ccccc21 [Ic-2, (1S, 3S)—N′-(4-tert-butylbenzylidene)-1-methyl-2,3,4,9-tetrahydropyridino [3,4-b] indol-3-formylhydrazine]
Bactericidal activity (%) Cercospora arachidicola [1]: 82.4%
Bactericidal activity (%) Bipolaria maydis [2]: 84.0%
Bactericidal activity (%) Cucumber fusarium wilt [3]: 65.4%
Bactericidal activity (%) Fusarium graminearumt [4]: 41.4%
Mosquito larvae Mortality (%) ([5]; concentration 10 mg/kg, 24 h): 20%
bactericidal activity against fungi (in words) [25]: very good bactericidal activity against various kinds of fungi
Bactericidal activity (%) Sclerotinia scleotiorum [6]: 94.1%
Relative inhibition rate (%) In vitro activity ([7]; treatment dose 100 μg/mL): 17.6%
Relative inhibition rate (%) In vitro activity ([7]; treatment dose 500 μg/mL): 52.4%
Bactericidal activity (%) Phytophthora capsici [8]: 73.7%
Relative inhibition rate (%) In vivo inactivation ([10]; treatment dose 100 μg/mL): 13.3%
Relative inhibition rate (%) In vivo inactivation ([10]; treatment dose 500 μg/mL): 50.3%
Bactericidal activity (%) Rhizoctonia solani [11]: 88.2%
Corn borer Mortality (%) [26]: 5%
Armyworm Mortality (%) [13]: 10%
Bactericidal activity (%) Rhizoctonia cereali [15]: 98.0%
Cotton bollworm Mortality (%) [16]: 30%
Relative inhibition rate (%) In vivo protection ([17]; treatment dose 100 μg/mL): 21.7%
Relative inhibition rate (%) In vivo protection ([17]; treatment dose 500 μg/mL): 53.8%
Bactericidal activity (%) Botrytis cinerea [18]: 86.4%
Relative inhibition rate (%) In vivo therapy ([19]; treatment dose 100 μg/mL): 18.2%
Relative inhibition rate (%) In vivo therapy ([19]; treatment dose 500 μg/mL): 47%
Bactericidal activity (%) Fusarium fujikuroi [20]: 57.1%
Bactericidal activity (%) potato late blight [21]: 76.0%
Bactericidal activity (%) Alternaria solani [22]: 70.0%
Bactericidal activity (%) Macrophoma kawatsukai [23]: 97.2%
Bactericidal activity (%) Colletotrichum orbiculare [24]: 77.8%

C[C@@H]1N[C@H](C(=O)NN=Cc2ccc(Cl)cc2)Cc2c1[nH]c1ccccc21 [Ic-5, (1S, 3S)—N′-(4-chlorobenzylidene)-1-methyl-2,3,4,9-tetrahydropyridino [3,4-b] indol-3-formylhydrazine]
Bactericidal activity (%) Cercospora arachidicola [1]: 76.5%
Bactericidal activity (%) Bipolaria maydis [2]: 68.0%
Bactericidal activity (%) Cucumber fusarium wilt [3]: 61.5%
Bactericidal activity (%) Fusarium graminearumt [4]: 75.9%
Mosquito larvae Mortality (%) ([5]; concentration 10 mg/kg, 24 h): 50%
bactericidal activity against fungi (in words) [25]: very good bactericidal activity against various kinds of fungi
Bactericidal activity (%) Sclerotinia scleotiorum [6]: 88.2%
Relative inhibition rate (%) In vitro activity ([7]; treatment dose 100 μg/mL): 30.8%
Relative inhibition rate (%) In vitro activity ([7]; treatment dose 500 μg/mL): 67.3%
Bactericidal activity (%) Phytophthora capsici [8]: 81.6%
Relative inhibition rate (%) In vivo inactivation ([10]; treatment dose 100 μg/mL): 35.9%
Relative inhibition rate (%) In vivo inactivation ([10]; treatment dose 500 μg/mL): 70.4%
Bactericidal activity (%) Rhizoctonia solani [11]: 81.6%
Corn borer Mortality (%) [26]: 20%
Armyworm Mortality (%) [13]: 25%
Bactericidal activity (%) Rhizoctonia cereali [15]: 94.1%
Cotton bollworm Mortality (%) [16]: 25%
Relative inhibition rate (%) In vivo protection ([17]; treatment dose 100 μg/mL): 34.1%
Relative inhibition rate (%) In vivo protection ([17]; treatment dose 500 μg/mL): 64.2%
Bactericidal activity (%) Botrytis cinerea [18]: 59.1%
Relative inhibition rate (%) In vivo therapy ([19]; treatment dose 100 μg/mL): 29.2%
Relative inhibition rate (%) In vivo therapy ([19]; treatment dose 500 μg/mL): 71.5%
Bactericidal activity (%) Fusarium fujikuroi [20]: 64.3%
Bactericidal activity (%) potato late blight [21]: 80.0%
Bactericidal activity (%) Alternaria solani [22]: 55.0%
Bactericidal activity (%) Macrophoma kawatsukai [23]: 97.2%
Bactericidal activity (%) Colletotrichum orbiculare [24]: 77.8%

C[C@@H]1N[C@H](C(=O)NN=Cc2ccc[nH]2)Cc2c1[nH]c1ccccc21 [Ic-19, (1S, 3S)—N′-(pyrrole-2-methylene)-1-methyl-2,3,4,9-tetrahydropyridino [3,4-b] indol-3-formylhydrazine]
Bactericidal activity (%) Cercospora arachidicola [1]: 23.5%
Bactericidal activity (%) Bipolaria maydis [2]: 28.0%
Bactericidal activity (%) Cucumber fusarium wilt [3]: 23.1%
Bactericidal activity (%) Fusarium graminearumt [4]: 41.4%
activity against culex pipiens larvae (in words) [5]: still show high activity
Mosquito larvae Mortality (%) ([5]; concentration 5 mg/kg, 24 h): 80%
Mosquito larvae Mortality (%) ([5]; concentration 10 mg/kg, 24 h): 100%
Bactericidal activity (%) Sclerotinia scleotiorum [6]: 58.8%
Relative inhibition rate (%) In vitro activity ([7]; treatment dose 100 μg/mL): 8.8%
Relative inhibition rate (%) In vitro activity ([7]; treatment dose 500 μg/mL): 49.5%
Bactericidal activity (%) Phytophthora capsici [8]: 42.1%
activity against armyworms, cotton bollworms and corn borers (in words) [9]: broad-spectrum activity
Relative inhibition rate (%) In vivo inactivation ([10]; treatment dose 100 μg/mL): 20.2%
Relative inhibition rate (%) In vivo inactivation ([10]; treatment dose 500 μg/mL): 61.3%
Bactericidal activity (%) Rhizoctonia solani [11]: 32.9%
anti-TMV activity compared with ningnanmycin [12]: equivalent to the activity of commercial variety ningnanmycin
Corn borer Mortality (%) [26]: 60%
Armyworm Mortality (%) [13]: 70%
Bactericidal activity (%) Rhizoctonia cereali [15]: 74.5%
Cotton bollworm Mortality (%) [16]: 50%
Relative inhibition rate (%) In vivo protection ([17]; treatment dose 100 μg/mL): 30%
Relative inhibition rate (%) In vivo protection ([17]; treatment dose 500 μg/mL): 54.7%
Bactericidal activity (%) Botrytis cinerea [18]: 22.7%
Relative inhibition rate (%) In vivo therapy ([19]; treatment dose 100 μg/mL): 27.8%
Relative inhibition rate (%) In vivo therapy ([19]; treatment dose 500 μg/mL): 63.4%
Bactericidal activity (%) Fusarium fujikuroi [20]: 14.3%
Bactericidal activity (%) potato late blight [21]: 24.0%
Bactericidal activity (%) Alternaria solani [22]: 15.0%
Bactericidal activity (%) Macrophoma kawatsukai [23]: 97.2%
Bactericidal activity (%) Colletotrichum orbiculare [24]: 29.6%
